Values joined by “and” are separate entries in the source; they are usually repeats but may differ in a detail not shown here. Equal values may be shown once. Read-outs that look alike come from different tables or passages of the source.
Key:
[1] = target: P. pacificus complex I (Pristionchus pacificus, UniProt A0A454XZ18+A0A8R1Z3U8+A4UAP3); test: In vitro complex I activity assay, P. pacificus mitochondria; type: biochemical; settings: for IC50: purified mitochondria
Method: Mitochondria were isolated from the following free-living nematode strains: C. elegans—N2, CB3474, ECA882, ECA917, ECA1075, ECA1080; C. briggsae—AF16; P. pacificus—PS312; and P. hermaphrodita—B178. With the exception of the P. hermaphrodita strain B178, adult worms of each strain were grown in bulk through liquid culture to obtain mitochondria in sufficient quantities. Due to poor growth in liquid media, mixed stage populations of P. hermaphrodita were washed off and collected from NGM plates seeded with OP50. The isolation of mitochondria from all free-living nematode strains followed the protocol previously outlined in Burns et al.[24]. In brief, a 1 L saturated culture of E. coli HB101 was concentrated 20-fold in 50 mL complete S-medium. ~500,000 L1 worms synchronized from an embryo preparation performed the day prior were added to the S-media/HB101 suspension and grown to adulthood over the course of 3.5 days at 20 °C with shaking at 165 rpm. Following growth, worms were collected in 10 ×15 mL conical tubes and washed 7 times in M9 buffer. Worm suspensions were then combined into a single 15 mL conical tube and diluted to a final volume of 15 mL with M9 buffer. 1 mL aliquots of worm suspension were then distributed to 15 × 1.5 mL screw-cap microcentrifuge tubes and were pelleted at 500 g for 1 min. Excess M9 was aspirated without disturbing the worm pellet. 600 μL ice-cold isolate buffer A (250 mM sucrose, 10 mM Tris (pH 7.5), 1 mM EDTA, 1 mM PMSF (freshly prepared)) and 300 μL cold glass beads were then added to each tube. Tubes were incubated on ice for 10 min, and the worms were then lysed by bead beating (6 x 30 s, with 1 min cooling intervals). Tubes containing worm lysate were centrifuged at 1,000 g for 10 min at 4 °C and the supernatant was transferred to 15 new microcentrifuge tubes on ice. The tubes were centrifuged a second time at 1,000 g for 10 min at 4 °C and the supernatant was once again transferred to 15 new microcentrifuge tubes on ice. These tubes were then centrifuged at 16,000 g for 10 min at 4 °C. The resulting mitochondrial pellet was washed twice by re-suspension in 300 μL of ice-cold isolate buffer B (250 mM sucrose, 10 mM Tris (pH 7.5), 1 mM EDTA). Following the final wash, isolation buffer was aspirated from each tube and the pellets were flash-frozen in ethanol/dry ice and stored at −80 °C until needed.
The enzymatic activities of individual ETC complexes (I-IV) were assessed spectrophotometrically in isolated mitochondria using a Varioskan LUX Multimode plate reader (ThermoFisher Scientific). Mitochondrial pellets previously isolated were thawed on ice and resuspended in ice-cold isolation buffer (250 mM sucrose, 10 mM Tris (pH 7.5), 1 mM EDTA). The BCA assay (Walker, 1994) was used to quantify the protein concentration of mitochondria suspensions; solutions were diluted to a concentration of 0.2 mg/mL for use in all assays. For the complex I assay, mitochondria pellets were freeze-thawed on ice three times to increase enzyme accessibility. […] 20 μL mitochondria suspension was then added/mixed with a pipette to initiate the reaction. Immediately following the addition of mitochondria, absorbance was measured (complex I and II: 600 nm; complex III and IV: 550 nm) in 30 s intervals over 15 min. Enzymatic activity was determined in each reaction by plotting absorbance versus time and calculating the slope of the curve during the initial linear phase of the reaction. […] Percent activity of each complex was calculated by dividing the enzyme-specific activity of each well by the enzyme-specific activity of the corresponding solvent controls.
Chemical solutions were prepared in complex I assay buffer composed of 25 mM KPi buffer (pH 7.5), 3 mg/mL bovine serum albumin (BSA), 80 μM NADH, 60 μM decylubiquinone, 160 μM DCIP, 2 μM antimycin A and 2 mM KCN. […]

[2] = system: H. polygyrus; test: In vivo efficacy study in H. polygyrus mouse model; set-up: species or system NMRI mice infected with H. polygyrus; settings: for # Mice cured/ # Mice investigated: assessed 1 week after dosing; for Median # of living H. polygyrus worms: median (MAD) of adults collected from intestine; for Live worms in intestine (individual mouse) / Live worms in intestine, Median (+/- MAD): worm burden one week after dose; for Live worms in intestine (individual mouse): Mouse 1-4, 200 mg/kg; for Live worms in intestine, Median (+/- MAD): three to four mice
Method: For in vivo testing, female 3-week old NMRI mice were purchased from Charles River, Germany. The mice were kept in individually ventilated cages (IVC) under environmentally controlled conditions (temperature: 22 °C ± 2 °C; relative humidity: 55% ± 15%; artificial lighting with a circadian cycle of 12 h of light) and had free access to water (municipal tap water supply) and rodent food. Rodents were allowed to acclimatize to the new environment for 1 week before infection. Upon 2 days of arrival, dexamethasone (0.25 mg/L) (Sigma-Aldrich, Switzerland) was added to the normal drinking water for immunosuppression to enable parasite establishment. After 1 week, mice were orally infected with 100 H. polygyrus third larval stage (L3) in 150 µL water.
Four benzimidazole derivatives were tested for in vivo efficacy. The administration of dexamethasone was stopped after 12 days post-infection and 2 days later, the selected four benzimidazole derivatives were administered by oral gavage at a single dose of 200 mg/kg to groups of each four mice. Four mice were left untreated and served as a control group. The derivatives were prepared as a Tween80 (Sigma-Aldrich, Switzerland)/ethanol (Merck, Germany) mixture dissolved in tap water (7:3:90, v/v). After 6–7 days post-dosing, the mice were euthanized with CO2 and dissected. Adult worms were removed from the intestine and counted. The worm burden reduction was calculated by comparing the number of worms found in the control animals versus the treated animals.

[3] = system: C. elegans; test: C. elegans chemical screens of RIKEN NPD libraries at 50 μM (hit identification in KCN survival and development/viability assays); type: cell-based, Caenorhabditis elegans; settings: screened at 50 μM in triplicate; […]; KCN = KCN survival assay, Dev. & Viability = development/viability assay
[4] = P. pacificus mitochondria, Mean, read-out: in vitro complex I activity relative to solvent control
[5] = P. pacificus mitochondria, single replicate, read-out: in vitro complex I activity relative to solvent control
[6] = single oral dose 200 mg/kg, vs untreated control mice
[7] = single oral dose of 200 mg/kg, median worm counts versus control mice
[8] = P. pacificus mitochondria, Mean of replicates, read-out: in vitro complex I activity relative to solvent control

Cc1ccccc1OCCCCn1cnc2ccccc21 [Compound 7732524]
remaining activity at 0.0001 µM [1, 4]: 87.6% | remaining activity at 0.0001 µM [1, 5]: 93.9% | remaining activity at 0.0005 µM [1, 4]: 88.6% | remaining activity at 0.001 µM [1, 4]: 75.8% | remaining activity at 0.0025 µM [1, 4]: 97.4% | remaining activity at 0.005 µM [1, 4]: 100% | remaining activity at 0.013 µM [1, 4]: 85.8% | remaining activity at 0.025 µM [1, 4]: 73.7% | remaining activity at 0.063 µM [1, 4]: 46.6% | remaining activity at 0.125 µM [1, 4]: 24.7% | remaining activity at 0.313 µM [1, 4]: 8.23% | remaining activity at 0.625 µM [1, 4]: 11.5% | remaining activity at 1.5 µM [1, 4]: 9.66% | remaining activity at 3 µM [1, 4]: 9.9% | remaining activity at 15 µM [1, 4]: 16.2% | remaining activity at 15 µM [1, 5]: 15.9% | remaining activity at 37.5 µM [1, 4]: 16.1% | remaining activity at 75 µM [1, 4]: 7.58% | IC50 [1]: 0.0562 µM | # Mice cured/ # Mice investigated ([2]; single oral dose 200 mg/kg): 0/4 | % Worm burden reduction [2, 6]: 24.6% | Median # of living H. polygyrus worms ([2]; single oral dose 200 mg/kg): 93.5 (5.0) | % Worm burden reduction [2, 7]: 24.5968% | Live worms in intestine (individual mouse) ([2]; single oral dose of 200 mg/kg): 95 and 92 and 111 and 85 | Live worms in intestine, Median (+/- MAD) ([2]; single oral dose of 200 mg/kg): 93.5 (5.0)

CC(C)Cc1ccc(C(C)c2nc3ccccc3n2C)cc1 (stereo not shown) [NPD8790]
Hit Type [3]: KCN | remaining activity at 0.06 µM ([1]; P. pacificus mitochondria, 0.06 µM, Mean of replicates, read-out: in vitro complex I activity relative to solvent control): 105% | remaining activity at 0.13 µM ([1]; P. pacificus mitochondria, 0.13 µM, Mean of replicates, read-out: in vitro complex I activity relative to solvent control): 88% | remaining activity at 0.313 µM [1, 8]: 82% | remaining activity at 0.625 µM [1, 8]: 75.5% | remaining activity at 1.5 µM [1, 8]: 68.1% | remaining activity at 3 µM [1, 8]: 49.1% | remaining activity at 15 µM [1, 8]: 21.4% | remaining activity at 37.5 µM [1, 8]: 16.3% | remaining activity at 75 µM [1, 8]: 11.3% | remaining activity at 0.0001 µM [1, 4]: 85.3% | remaining activity at 0.0001 µM [1, 5]: 79.8% | remaining activity at 0.0005 µM [1, 4]: 88.9% | remaining activity at 0.0005 µM [1, 5]: 82.3% | remaining activity at 0.001 µM [1, 4]: 112% | remaining activity at 0.0025 µM [1, 4]: 110% | remaining activity at 0.005 µM [1, 4]: 117% | remaining activity at 0.013 µM [1, 4]: 105% | remaining activity at 0.025 µM [1, 4]: 107% | remaining activity at 0.063 µM [1, 4]: 105% | remaining activity at 0.125 µM [1, 4]: 88% | remaining activity at 0.313 µM [1, 4]: 82% | remaining activity at 0.313 µM [1, 5]: 71.1% | remaining activity at 0.625 µM [1, 4]: 75.5% | remaining activity at 1.5 µM [1, 4]: 68.1% | remaining activity at 3 µM [1, 4]: 49.1% | remaining activity at 15 µM [1, 4]: 21.4% | remaining activity at 37.5 µM [1, 4]: 16.3% | remaining activity at 75 µM [1, 4]: 11.3% | IC50 [1]: 2.1 µM | # Mice cured/ # Mice investigated ([2]; single oral dose 200 mg/kg): 0/4 | % Worm burden reduction [2, 6]: 23.0% | Median # of living H. polygyrus worms ([2]; single oral dose 200 mg/kg): 95.5 (4.0) | % Worm burden reduction [2, 7]: 22.9839% | Live worms in intestine (individual mouse) ([2]; single oral dose of 200 mg/kg): 93 and 52 and 101 and 98 | Live worms in intestine, Median (+/- MAD) ([2]; single oral dose of 200 mg/kg): 95.5 (4.0)
